Assay results: patent publication US10703748B2, “Diazanaphthalen-3-yl carboxamides and preparation and use thereof” (Samumed, LLC, priority 2017, dated 2020)

Legend:
[1] = tested on: α-smooth muscle actin (aSMA) positive LL29 cells; experiment: Inhibition of the fibrotic process: αSMA staining in TGF-β1 treated LL29 fibroblasts from IPF patients; conditions: Homo sapiens, Fibroblast; for EC50: 96 h; for inhibition at 10 µM: read-out: percentage in parentheses after EC50 >10
[2] = tested on: secreted cytokines TNFα, IL-6 and KC-GRO; experiment: Secreted cytokines in Lipopolysaccharide-stimulated BV-2 cells (Table 9 does not say which cytokine); type: cell-based, mouse; conditions: Mus musculus, BV-2, 5 h; read-out: EC50
DYRK1A kinase = DYRK1A kinase (Homo sapiens, UniProt Q13627); experiment: DYRK1A kinase activity (Ser/Thr 18 peptide Z-lyte FRET assay); type: biochemical; conditions: recombinant DYRK1A, 30 μM ATP, one hour at room temperature;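 further: kinase activity read as coumarin/fluorescein emission ratio after development step, with unphosphorylated and phosphorylated peptide forms setting 0% and 100% controls, values from dose-response curves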
IL-6 = IL-6 inhibition in LPS-stimulated human peripheral blood mononuclear cells (HTRF); conditions: Homo sapiens, PBMC; for EC50: 22 h; for inhibition at 10 µM: read-out: percentage in parentheses after EC50 >10
GSK3β kinase = GSK3β kinase (Homo sapiens, UniProt P49841); experiment: GSK3β kinase activity (Ser/Thr 09 peptide Z-lyte FRET assay); type: biochemical; conditions: recombinant kinase, 46 μM ATP, one hour at room temperature; read-out: EC50
Sequence of GSK3β kinase (P49841 whole entry): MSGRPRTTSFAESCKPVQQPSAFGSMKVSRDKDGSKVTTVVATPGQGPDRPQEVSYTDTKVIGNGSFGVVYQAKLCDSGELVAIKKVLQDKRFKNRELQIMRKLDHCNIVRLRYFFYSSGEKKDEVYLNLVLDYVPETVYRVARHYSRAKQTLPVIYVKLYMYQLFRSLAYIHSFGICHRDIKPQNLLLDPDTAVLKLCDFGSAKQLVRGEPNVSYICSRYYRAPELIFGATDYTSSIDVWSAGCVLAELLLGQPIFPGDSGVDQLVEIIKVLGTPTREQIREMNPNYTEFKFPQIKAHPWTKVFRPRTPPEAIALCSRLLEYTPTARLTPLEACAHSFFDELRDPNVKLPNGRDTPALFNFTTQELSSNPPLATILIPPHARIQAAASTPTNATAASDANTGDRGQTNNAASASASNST

[3] = tested on: SW480 colon carcinoma cells; experiment: Cell viability assay (CellTiter-Glo); conditions: Homo sapiens; for EC50: SW480, 96 h; for inhibition at 10 µM: SW480, read-out: percent inhibition at 10 μM
[4] = tested on: Wnt-responsive Sp5-Luc reporter in SW480 colon carcinoma cells; experiment: Screening assay for Wnt activity (Sp5-Luc reporter gene assay); conditions: Homo sapiens; for EC50: SW480; for inhibition at 10 µM: SW480, read-out: percent inhibition at 10 μM

Row | SMILES | EC50 [2] [nM] | EC50 (DYRK1A kinase) [nM] | EC50 (IL-6) [nM] | EC50 (GSK3β kinase) [nM] | EC50 [3] [nM] | EC50 [4] [nM] | EC50 [1] [nM] | inhibition at 10 µM [1] [%] | inhibition at 10 µM (IL-6) [%] | inhibition at 10 µM [3] [%] | inhibition at 10 µM [4] [%]
1 | O=C(Nc1cc2nc(-c3cnco3)ccc2cn1)c1ccc(OC2CCNCC2)cc1 [Compound 4551, N-(2-(Oxazol-5-yl)-1,6-naphthyridin-7-yl)-4-(piperidin-4-yloxy)benzamide] | 400 | 5 | 2990 | 4240 | 1040 | 1020 | 325 | – | – | – | –
2 | Nc1cncc(-c2ccc3cnc(NC(=O)c4ccc(OC5CCNCC5)cc4)cc3n2)c1 [Compound 804, N-(2-(5-Aminopyridin-3-yl)-1,6-naphthyridin-7-yl)-4-(piperidin-4-yloxy)benzamide] | 104 | 2 | 1590 | 4680 | 272 | 289 | 482 | – | – | – | –
3 | Cn1cnnc1-c1ccc2cnc(NC(=O)C3CCN(CCC(F)(F)F)CC3)nc2c1 [Compound 1297, N-(7-(4-Methyl-4H-1,2,4-triazol-3-yl)quinazolin-2-yl)-1-(3,3,3-trifluoropropyl)piperidine-4-carboxamide] | ≥ 10000 | 57 | > 10000 | 38 | > 10000 | > 10000 | > 10000 | 42.1 | 4.3 | 35.1 | 39.2
4 | O=C(Nc1cc2nc(-c3cncs3)ccc2cn1)c1ccncc1 [Compound 625, N-(2-(Thiazol-5-yl)-1,6-naphthyridin-7-yl)isonicotinamide] | 130 | 4 | > 10000 | 8260 | > 10000 | 964 | 3010 | – | 6.5 | 47.8 | –
5 | CC(F)(F)CN1CCC(C(=O)Nc2cc3cc(-c4cnco4)cnc3cn2)CC1 [Compound 3257, 1-(2,2-Difluoropropyl)-N-(3-(oxazol-5-yl)-1,7-naphthyridin-6-yl)piperidine-4-carboxamide] | 458 | 16 | > 10000 | 5300 | > 10000 | > 10000 | > 10000 | 36 | 3.2 | 15 | 12.9

Now from value to compound, other results behind:

Row | EC50 [2] [nM] | EC50 (DYRK1A kinase) [nM] | EC50 (IL-6) [nM] | EC50 (GSK3β kinase) [nM] | EC50 [3] [nM] | EC50 [4] [nM] | SMILES | EC50 [1] [nM] | inhibition at 10 µM [1] [%] | inhibition at 10 µM (IL-6) [%] | inhibition at 10 µM [3] [%] | inhibition at 10 µM [4] [%]
6 | 265 | 7 | 4200 | > 10000 | 860 | 484 | CN1CCN(c2cc(C(=O)Nc3cc4nc(-c5ccc(N)nc5)ccc4cn3)ccn2)CC1 [Compound 807, N-(2-(6-Aminopyridin-3-yl)-1,6-naphthyridin-7-yl)-2-(4-methylpiperazin-1-yl)isonicotinamide] | 1410 | – | – | – | –
7 | 378 | 7 | > 10000 | 4850 | 3160 | 447 | Cn1cc(-c2ccc3cnc(NC(=O)c4ccc5nccnc5c4)cc3n2)cn1 [Compound 216, N-(2-(1-Methyl-1H-pyrazol-4-yl)-1,6-naphthyridin-7-yl)quinoxaline-6-carboxamide] | 598 | – | 0 | – | –
8 | 300 | 7 | > 10000 | 416 | 2310 | 2690 | Cc1ncc(C(=O)Nc2cc3cc(-c4cnc(C)n4C)ncc3cn2)s1 [Compound 4074, N-(6-(1,2-Dimethyl-1H-imidazol-5-yl)-2,7-naphthyridin-3-yl)-2-methylthiazole-5-carboxamide] | 3190 | – | 14 | – | –
9 | 194 | 10 | 3990 | 1750 | 446 | 367 | CN1CCC(n2cc(C(=O)Nc3cc4cc(-c5cnn(C)c5)ncc4cn3)cn2)CC1 [Compound 3856, N-(6-(1-Methyl-1H-pyrazol-4-yl)-2,7-naphthyridin-3-yl)-1-(1-methylpiperidin-4-yl)-1H-pyrazole-4-carboxamide] | > 10000 | 17.5 | – | – | –
